{"source": "ChEMBL document CHEMBL5150033", "about": "“Synthesis, evaluation and mechanism exploration of 2-(N-(3-nitrophenyl)-N-phenylsulfonyl)aminoacetohydroxamic acids as novel urease inhibitors” (Bioorg Med Chem Lett, 2022)", "key": {"[1]": {"biological_target": "T1, Urease subunit alpha/Urease subunit beta (Helicobacter pylori (strain ATCC 700392 / 26695) (Campylobacterpylori), UniProt P69996)", "T1 sequence (P69996 whole entry)": "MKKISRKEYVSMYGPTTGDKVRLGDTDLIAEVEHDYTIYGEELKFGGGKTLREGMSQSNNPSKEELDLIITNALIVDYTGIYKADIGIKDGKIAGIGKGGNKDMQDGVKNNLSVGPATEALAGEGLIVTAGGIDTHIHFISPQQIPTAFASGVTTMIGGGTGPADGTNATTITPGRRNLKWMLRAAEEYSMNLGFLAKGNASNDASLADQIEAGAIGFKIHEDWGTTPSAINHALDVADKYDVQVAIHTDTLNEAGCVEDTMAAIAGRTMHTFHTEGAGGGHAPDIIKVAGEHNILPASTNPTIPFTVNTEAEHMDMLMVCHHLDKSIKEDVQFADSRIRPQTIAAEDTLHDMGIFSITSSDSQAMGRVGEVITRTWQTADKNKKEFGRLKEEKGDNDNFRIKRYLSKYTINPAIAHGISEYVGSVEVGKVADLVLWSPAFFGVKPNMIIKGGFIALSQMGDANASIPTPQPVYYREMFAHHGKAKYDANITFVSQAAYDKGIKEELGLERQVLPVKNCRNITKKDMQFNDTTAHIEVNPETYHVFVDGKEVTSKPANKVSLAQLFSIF", "T1 sequence (P14916 whole entry, further chain)": "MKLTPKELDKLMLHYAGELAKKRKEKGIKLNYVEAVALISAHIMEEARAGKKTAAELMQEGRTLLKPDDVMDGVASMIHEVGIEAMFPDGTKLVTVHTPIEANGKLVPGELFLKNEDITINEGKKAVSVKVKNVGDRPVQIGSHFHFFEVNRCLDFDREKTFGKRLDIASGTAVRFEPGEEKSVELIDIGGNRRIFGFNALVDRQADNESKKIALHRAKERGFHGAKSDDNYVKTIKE", "test": "Inhibition of Helicobacter pylori urease", "type": "protein-complex assay"}, "HepG2": {"tested_on": "HepG2", "test": "Antiproliferative activity against human HepG2 cells assessed as reduction in cell viability at 250 ug/ml by MTT assay relative to control", "type": "functional", "conditions": "dose 250 µg/ml"}, "SGC-7901": {"tested_on": "SGC-7901", "test": "Antiproliferative activity against human SGC-7901 cells assessed as reduction in cell viability at 250 ug/ml by MTT assay relative to control", "type": "functional", "conditions": "dose 250 µg/ml"}, "K562": {"tested_on": "K562", "test": "Antiproliferative activity against human K562 cells assessed as reduction in cell viability at 250 ug/ml by MTT assay relative to control", "type": "functional", "conditions": "dose 250 µg/ml"}, "[2]": {"biological_target": "T2, Urease subunit alpha/Urease subunit beta (Helicobacter pylori (strain ATCC 700392 / 26695) (Campylobacterpylori)) (UniProt P69996+P14916)", "T2 sequence (P14916 whole entry, looked up)": "as the sequence (P14916 whole entry, further chain) above", "T2 sequence (P69996 whole entry, looked up)": "as the sequence (P69996 whole entry) above", "test": "Potency index, ratio of acetohydroxamic acid IC50 to test compound IC50 for inhibition of Helicobacter pylori urease", "type": "protein-complex assay"}, "[3]": {"biological_target": "T1, Urease subunit alpha/Urease subunit beta", "test": "Binding affinity to Helicobacter pyroli urease assessed as dissociation constant by surface plasmon resonance assay", "type": "protein-complex assay"}, "[4]": {"biological_target": "T1, Urease subunit alpha/Urease subunit beta", "test": "Mixed type inhibition of Helicobacter pyroli urease assessed as dissociation constant for EI complex by microplate reader analysis", "type": "protein-complex assay"}, "[5]": {"biological_target": "T1, Urease subunit alpha/Urease subunit beta", "test": "Mixed type inhibition of Helicobacter pyroli urease assessed as dissociation constant for ESI complex by microplate reader analysis", "type": "protein-complex assay"}, "[6]": {"biological_target": "T2, Urease subunit alpha/Urease subunit beta (Helicobacter pylori (strain ATCC 700392 / 26695) (Campylobacterpylori))", "test": "Inhibition of Helicobacter pyroli urease at 100 ug/ml […]", "type": "protein-complex assay", "conditions": "dose 100.0 µg/ml, time <= 120.0 min, TDE = time-dependent effect"}, "[7]": {"biological_target": "T2, Urease subunit alpha/Urease subunit beta (Helicobacter pylori (strain ATCC 700392 / 26695) (Campylobacterpylori))", "test": "Inhibition of Helicobacter pyroli urease assessed as maximum inhibition at 100 ug/ml measured after 50 mins […]", "type": "protein-complex assay", "conditions": "dose 100.0 µg/ml"}}, "note": "pIC50, pKd, pKi: −log10 of the molar value. The source made the active and inactive calls. The rule behind the calls is not given here.", "data": [{"smiles": "O=C(CN(c1cccc([N+](=O)[O-])c1)S(=O)(=O)c1ccccc1)NO", "values": [{"measurement": "pIC50", "setting": "[1]", "result": 5.62}, {"measurement": "Activity", "setting": "HepG2", "result": 83, "unit": "%"}, {"measurement": "Activity", "setting": "SGC-7901", "result": 79, "unit": "%"}, {"measurement": "Activity", "setting": "K562", "result": 76, "unit": "%"}]}, {"smiles": "O=C(CN(c1cccc([N+](=O)[O-])c1)S(=O)(=O)c1cc(F)ccc1F)NO", "values": [{"measurement": "pIC50", "setting": "[1]", "result": 4.79}, {"measurement": "Activity", "setting": "HepG2", "result": 89, "unit": "%"}, {"measurement": "Activity", "setting": "SGC-7901", "result": 92, "unit": "%"}, {"measurement": "Activity", "setting": "K562", "result": 88, "unit": "%"}]}, {"smiles": "Cc1cc(C)c(S(=O)(=O)N(CC(=O)NO)c2cccc([N+](=O)[O-])c2)c(C)c1", "values": [{"measurement": "pIC50", "setting": "[1]", "result": 4.02}, {"measurement": "Activity", "setting": "HepG2", "result": 87, "unit": "%"}, {"measurement": "Activity", "setting": "SGC-7901", "result": 85, "unit": "%"}, {"measurement": "Activity", "setting": "K562", "result": 94, "unit": "%"}]}, {"smiles": "O=C(CN(c1cccc([N+](=O)[O-])c1)S(=O)(=O)c1ccc(F)cc1)NO", "values": [{"measurement": "pIC50", "setting": "[1]", "result": 5.48}, {"measurement": "Activity", "setting": "HepG2", "result": 91, "unit": "%"}, {"measurement": "Activity", "setting": "SGC-7901", "result": 90, "unit": "%"}, {"measurement": "Activity", "setting": "K562", "result": 92, "unit": "%"}]}, {"smiles": "CC(=O)NO", "note": "[ACETOHYDROXAMIC ACID]", "values": [{"measurement": "pIC50", "setting": "[1]", "result": 4.58}, {"measurement": "Activity", "setting": "HepG2", "result": 76, "unit": "%"}, {"measurement": "Activity", "setting": "SGC-7901", "result": 72, "unit": "%"}, {"measurement": "Activity", "setting": "K562", "result": 64, "unit": "%"}]}, {"smiles": "O=C(CN(c1cccc([N+](=O)[O-])c1)S(=O)(=O)c1ccc(Cl)cc1)NO", "values": [{"measurement": "pIC50", "setting": "[1]", "result": 5.76}, {"measurement": "Activity", "setting": "HepG2", "result": 86, "unit": "%"}, {"measurement": "Activity", "setting": "SGC-7901", "result": 89, "unit": "%"}, {"measurement": "Activity", "setting": "K562", "result": 88, "unit": "%"}]}, {"smiles": "Cc1ccccc1S(=O)(=O)N(CC(=O)NO)c1cccc([N+](=O)[O-])c1", "values": [{"measurement": "pIC50", "setting": "[1]", "result": 5.15}, {"measurement": "Activity", "setting": "HepG2", "result": 87, "unit": "%"}, {"measurement": "Activity", "setting": "SGC-7901", "result": 90, "unit": "%"}, {"measurement": "Activity", "setting": "K562", "result": 90, "unit": "%"}]}, {"smiles": "O=C(CN(c1cccc([N+](=O)[O-])c1)S(=O)(=O)c1ccccc1Cl)NO", "values": [{"measurement": "pIC50", "setting": "[1]", "result": 4.66}, {"measurement": "Activity", "setting": "HepG2", "result": 93, "unit": "%"}, {"measurement": "Activity", "setting": "SGC-7901", "result": 90, "unit": "%"}, {"measurement": "Activity", "setting": "K562", "result": 91, "unit": "%"}]}, {"smiles": "O=C(CN(c1cccc([N+](=O)[O-])c1)S(=O)(=O)c1ccc(C(F)(F)F)cc1)NO", "values": [{"measurement": "pIC50", "setting": "[1]", "result": 5.02}, {"measurement": "Activity", "setting": "HepG2", "result": 93, "unit": "%"}, {"measurement": "Activity", "setting": "SGC-7901", "result": 90, "unit": "%"}, {"measurement": "Activity", "setting": "K562", "result": 87, "unit": "%"}]}, {"smiles": "O=C(CN(c1cccc([N+](=O)[O-])c1)S(=O)(=O)c1ccc(Br)cc1)NO", "values": [{"measurement": "pIC50", "setting": "[1]", "result": 6.89}, {"measurement": "Activity", "setting": "HepG2", "result": 91, "unit": "%"}, {"measurement": "Activity", "setting": "SGC-7901", "result": 86, "unit": "%"}, {"measurement": "Activity", "setting": "K562", "result": 87, "unit": "%"}, {"measurement": "Ratio IC50", "setting": "[2]", "result": 200}, {"measurement": "pKd", "setting": "[3]", "result": 9.47}, {"measurement": "pKi", "setting": "[4]", "result": 7.19}, {"measurement": "pKi", "setting": "[5]", "result": 5.92}, {"measurement": "inhibition", "setting": "[6]", "result": "Tde"}, {"measurement": "inhibition", "setting": "[7]", "result": "Active"}]}, {"smiles": "Cc1ccc(S(=O)(=O)N(CC(=O)NO)c2cccc([N+](=O)[O-])c2)cc1", "values": [{"measurement": "pIC50", "setting": "[1]", "result": 5.23}, {"measurement": "Activity", "setting": "HepG2", "result": 80, "unit": "%"}, {"measurement": "Activity", "setting": "SGC-7901", "result": 84, "unit": "%"}, {"measurement": "Activity", "setting": "K562", "result": 86, "unit": "%"}]}, {"smiles": "O=C(CN(c1cccc([N+](=O)[O-])c1)S(=O)(=O)c1ccccc1F)NO", "values": [{"measurement": "pIC50", "setting": "[1]", "result": 5.16}, {"measurement": "Activity", "setting": "HepG2", "result": 80, "unit": "%"}, {"measurement": "Activity", "setting": "SGC-7901", "result": 92, "unit": "%"}, {"measurement": "Activity", "setting": "K562", "result": 87, "unit": "%"}]}, {"smiles": "O=C(CN(c1cccc([N+](=O)[O-])c1)S(=O)(=O)c1cc(Cl)ccc1Cl)NO", "values": [{"measurement": "pIC50", "setting": "[1]", "result": 4.56}, {"measurement": "Activity", "setting": "HepG2", "result": 80, "unit": "%"}, {"measurement": "Activity", "setting": "SGC-7901", "result": 81, "unit": "%"}, {"measurement": "Activity", "setting": "K562", "result": 84, "unit": "%"}]}, {"smiles": "O=C(CN(c1cccc([N+](=O)[O-])c1)S(=O)(=O)c1cccc(F)c1)NO", "values": [{"measurement": "pIC50", "setting": "[1]", "result": 6.13}, {"measurement": "Activity", "setting": "HepG2", "result": 89, "unit": "%"}, {"measurement": "Activity", "setting": "SGC-7901", "result": 90, "unit": "%"}, {"measurement": "Activity", "setting": "K562", "result": 93, "unit": "%"}, {"measurement": "Ratio IC50", "setting": "[2]", "result": 35}]}]}
